{
  "source": "patent US20250134855A1",
  "about": "“CO[…] AND METHODS OF USING SAME” (LYKOS THERAPEUTICS, INC., priority 2022, published 2025)",
  "assay": "Population PK (PPK) model of MDMA and MDA (NONMEM)",
  "set-up": "species or system human",
  "text": "This example describes the methodology that was used to characterize the PPK of MDMA and its active minor metabolite MDA and the related model-based simulations.\nFor the PPK analysis, an individual was defined as evaluable if the following criteria were satisfied: • 1. Received at least one dose of MDMA • 2. Had at least one measurable MDMA observation with associated sampling time and dosing information for the MDMA modeling • 3. Had at least one measurable paired MDMA/MDA observation with associated sampling time and dosing information for the MDMA modeling\nThe evaluation of the impact of covariates on the MDMA and MDA PPK models focused on the most clinically relevant covariates. Prior to covariate selection, a correlation matrix was generated to determine the correlation between covariates. Only the most significant covariate among the highly correlated covariates was included in the model.\nSoftware Nonlinear mixed-effects modeling software (NONMEM®; version 7.4; ICON, Hanover, MD, US), a software package for nonlinear mixed-effects analysis was used for the PPK modeling. R (version 4.0.2) was used for simulations (e.g., to derive exposure measures for subsequent model application analysis).\nAlgorithms for the Development of the Population PK Model Plasma concentration-time data was analyzed using a nonlinear mixed effects modeling approach. The first-order conditional estimation method of NONMEM with interaction (FOCE INTER) was used for PPK model development.\nOne-, and two-compartment models were evaluated for MDMA based on the shape of the observed concentration-time profile. MDMA absorption was evaluated in two ways: as a first-order process and as a sequential zero-order process followed by first-order absorption. MDA was developed as a sequential model, with one-, two, and three-compartment models tested.\nThey were modeled assuming a log-normal distribution as given by the following expression: θki=θk×e^ηk^i where θki denotes the k^th parameter value for the i^th patient, θk denotes the typical parameter value, and ηki denotes the inter-individual random effect for the i^th patient—assumed to have mean of 0 (zero) and variance ωk^2. Collectively, the vector of random effects (across the parameters indexed by k) has the covariance matrix Ω. Covariance matrix structures including diagonal and blocked diagonal structures were evaluated after the completion of covariate model building. The residual error structure was assumed to follow an additive, proportional, or combined additive and proportional error model described by the following:\nThe subset of covariate-parameter relationships to be included was selected based on exploratory graphical analysis, mechanistic plausibility, and scientific and clinical interest. […] This was either the covariate with the strongest influence as determined by exploratory graphical analysis or the variable that is most meaningful from a clinical, biological, or practical perspective. Continuous covariates were preferred over categorized covariates with the same meaning.\nHowever, graphical covariate analysis can be relied on only if n-shrinkage in the respective population model parameters is low. Covariates that fulfilled the above criteria were tested in a stepwise process. The covariate selection was performed using a forward addition process followed by backward elimination. The likelihood ratio test was used to evaluate the significance of incorporating or removing fixed effects into the population model based on significance levels that were set a priori. For forward addition and backward elimination, significance levels of 0.01 and 0.001 were employed, respectively. The improvement of the model relative to the base model was compared after each of the covariates was added univariately, and the model with the largest improvement was kept for the next evaluation step, given that there was an overall statistical significance supporting the inclusion of the respective covariate. […]",
  "key": {"[1]": {"settings": "MPXF (N =16), population parameter, IIV not included"}, "[2]": {"settings": "5th percentile of body weight (52 kg)"}, "[3]": {"settings": "95th percentile of body weight (97 kg)"}},
  "data": [
    {"molecule": "CC(N)Cc1ccc2c(c1)OCO2", "note": "(stereo not shown) [MDA, 3,4-methylenedioxyamphetamine]", "values": [
      {"measurement": "MDA Clearance, CLM, post hoc Geo. mean", "setting": "MPXF (N =16)", "value": 29.7, "unit": "L/h"},
      {"measurement": "MDA Intercompartmental Clearance, QM, post hoc Geo. mean", "setting": "MPXF (N =16)", "value": 68.4, "unit": "L/h"},
      {"measurement": "MDA Central Volume, V3", "setting": "[1]", "value": 20.8, "unit": "L"},
      {"measurement": "CLM, base model estimate", "setting": "base MDA model", "value": 35.6, "unit": "L/h"},
      {"measurement": "IIV on CLM", "setting": "base MDA model", "value": 37.7},
      {"measurement": "IIV on QM", "setting": "base MDA model", "value": 55.8},
      {"measurement": "IIV on V4", "setting": "base MDA model", "value": 43.5},
      {"measurement": "V3, base model estimate", "setting": "base MDA model", "value": 19.4, "unit": "L"},
      {"measurement": "lower V4 (MDA peripheral volume of distribution)", "setting": "female compared to male subjects", "value": 18, "unit": "%"},
      {"measurement": "Body weight effect on CLM, Bootstrap median", "setting": "final MDA model", "value": 0.585},
      {"measurement": "Body weight effect on CLM, estimate", "setting": "final MDA model", "value": 0.580},
      {"measurement": "Body weight effect on QM, Bootstrap median", "setting": "final MDA model", "value": 1.02},
      {"measurement": "Body weight effect on QM, estimate", "setting": "final MDA model", "value": 1.00},
      {"measurement": "CLM, Bootstrap median", "setting": "final MDA model", "value": 83.9, "unit": "L/h"},
      {"measurement": "CLM, final model estimate", "setting": "final MDA model", "value": 79.6, "unit": "L/h"},
      {"measurement": "Sex effect on V4, Bootstrap median", "setting": "final MDA model", "value": "−0.18"},
      {"measurement": "V4, Bootstrap median", "setting": "final MDA model", "value": 213, "unit": "L"},
      {"measurement": "V4, final model estimate", "setting": "final MDA model", "value": 213, "unit": "L"}
    ]},
    {"molecule": "CNC(C)Cc1ccc2c(c1)OCO2", "note": "(stereo not shown) [MDMA, 3,4-methylenedioxymethamphetamine]", "values": [
      {"measurement": "higher MDMA AUC0-44 relative to reference individual", "setting": "[2]", "value": 30, "unit": "%"},
      {"measurement": "higher MDMA Cmax relative to reference individual", "setting": "[2]", "value": 30, "unit": "%"},
      {"measurement": "lower MDMA AUC0-44 relative to reference individual", "setting": "[3]", "value": 28, "unit": "%"},
      {"measurement": "lower MDMA Cmax relative to reference individual", "setting": "[3]", "value": 25, "unit": "%"},
      {"measurement": "Cmax MDMA, post hoc Geo. mean", "setting": "MPKF Fasted 120 mg (N = 16)", "value": 246.0, "unit": "ng/mL"},
      {"measurement": "Cmax MDMA, post hoc Geo. mean", "setting": "MPKF Fed 120 mg (N = 14)", "value": 197.3, "unit": "ng/mL"},
      {"measurement": "Post Hoc Absorption Rate, Geo. mean (Geo. CV %)", "setting": "MPKF Fed (N = 14), high fat meal", "value": "0.6 (50.2) 1/h"},
      {"measurement": "Post Hoc Absorption Rate, Geo. mean (Geo. CV %)", "setting": "MPKT Fasted (N = 16)", "value": "3.5 (47.0) 1/h"},
      {"measurement": "Duration of zero order absorption, D1, post hoc Geo. mean", "setting": "MPXF (N =16)", "value": 0.4, "unit": "h"},
      {"measurement": "Half-life MDMA, t½, post hoc Geo. mean", "setting": "MPXF (N =16)", "value": 8.7, "unit": "h"},
      {"measurement": "MDMA Apparent Volume of Distribution, V, post hoc Geo. mean", "setting": "MPXF (N =16)", "value": 368.3, "unit": "L"},
      {"measurement": "Lag time, ALAG", "setting": "[1]", "value": 0.3, "unit": "h"},
      {"measurement": "time to complete clearance (5 half-lives)", "setting": "assumed", "value": "38.5 to 43.5", "unit": "h"},
      {"measurement": "ALAG1, base model estimate", "setting": "base MDMA model", "value": 0.312, "unit": "h"},
      {"measurement": "CL/F, base model estimate", "setting": "base MDMA model", "value": 38.3, "unit": "L/h"},
      {"measurement": "D1, base model estimate", "setting": "base MDMA model", "value": 0.242, "unit": "h"},
      {"measurement": "IIV on D1", "setting": "base MDMA model", "value": 159},
      {"measurement": "IIV on Ka", "setting": "base MDMA model", "value": 55.9},
      {"measurement": "IIV on V2/F", "setting": "base MDMA model", "value": 28.5},
      {"measurement": "V2/F, base model estimate", "setting": "base MDMA model", "value": 444, "unit": "L"},
      {"measurement": "ka, base model estimate", "setting": "base MDMA model", "value": 1.14, "unit": "h⁻¹"},
      {"measurement": "ALAG1, Bootstrap median", "setting": "final MDMA model", "value": 0.323, "unit": "h"},
      {"measurement": "ALAG1, final model estimate", "setting": "final MDMA model", "value": 0.322, "unit": "h"},
      {"measurement": "Body weight effect on V2/F, Bootstrap median", "setting": "final MDMA model", "value": 0.884},
      {"measurement": "Body weight effect on V2/F, estimate", "setting": "final MDMA model", "value": 0.885},
      {"measurement": "CL/F, Bootstrap median", "setting": "final MDMA model", "value": 41.8, "unit": "L/h"},
      {"measurement": "CL/F, final model estimate", "setting": "final MDMA model", "value": 41.5, "unit": "L/h"},
      {"measurement": "D1, Bootstrap median", "setting": "final MDMA model", "value": 0.271, "unit": "h"},
      {"measurement": "D1, final model estimate", "setting": "final MDMA model", "value": 0.304, "unit": "h"},
      {"measurement": "Fasted status effect on KA, Bootstrap median", "setting": "final MDMA model", "value": 1.08},
      {"measurement": "Fasted status effect on KA, estimate", "setting": "final MDMA model", "value": 1.93},
      {"measurement": "Fed status effect on KA, Bootstrap median", "setting": "final MDMA model", "value": "−0.496"},
      {"measurement": "Fed status effect on KA, estimate", "setting": "final MDMA model", "value": "−0.484"},
      {"measurement": "IIV on D1", "setting": "final MDMA model", "value": 153},
      {"measurement": "IIV on KA", "setting": "final MDMA model", "value": 60.2},
      {"measurement": "IIV on V2/F", "setting": "final MDMA model", "value": 19.9},
      {"measurement": "Study effect on V2/F, Bootstrap median", "setting": "final MDMA model", "value": "−0.267"},
      {"measurement": "Study effect on V2/F, estimate", "setting": "final MDMA model", "value": "−0.263"},
      {"measurement": "V2/F, Bootstrap median", "setting": "final MDMA model", "value": 461, "unit": "L"},
      {"measurement": "V2/F, final model estimate", "setting": "final MDMA model", "value": 462, "unit": "L"},
      {"measurement": "ka, Bootstrap median", "setting": "final MDMA model", "value": 1.17, "unit": "h⁻¹"},
      {"measurement": "ka, final model estimate", "setting": "final MDMA model", "value": 1.17, "unit": "h⁻¹"},
      {"measurement": "lower Ka", "setting": "subjects fed a high fat diet", "value": 49, "unit": "%"}
    ]}
  ]
}
